Molecules are shown by their SMILES. Active and inactive are the calls of the source. The calls are words filed in the database; no cut-off is given here.

In data set [1] the target is T1, Macrophage colony-stimulating factor 1 receptor (Mus musculus) (UniProt P09581).
T1 sequence (whole entry): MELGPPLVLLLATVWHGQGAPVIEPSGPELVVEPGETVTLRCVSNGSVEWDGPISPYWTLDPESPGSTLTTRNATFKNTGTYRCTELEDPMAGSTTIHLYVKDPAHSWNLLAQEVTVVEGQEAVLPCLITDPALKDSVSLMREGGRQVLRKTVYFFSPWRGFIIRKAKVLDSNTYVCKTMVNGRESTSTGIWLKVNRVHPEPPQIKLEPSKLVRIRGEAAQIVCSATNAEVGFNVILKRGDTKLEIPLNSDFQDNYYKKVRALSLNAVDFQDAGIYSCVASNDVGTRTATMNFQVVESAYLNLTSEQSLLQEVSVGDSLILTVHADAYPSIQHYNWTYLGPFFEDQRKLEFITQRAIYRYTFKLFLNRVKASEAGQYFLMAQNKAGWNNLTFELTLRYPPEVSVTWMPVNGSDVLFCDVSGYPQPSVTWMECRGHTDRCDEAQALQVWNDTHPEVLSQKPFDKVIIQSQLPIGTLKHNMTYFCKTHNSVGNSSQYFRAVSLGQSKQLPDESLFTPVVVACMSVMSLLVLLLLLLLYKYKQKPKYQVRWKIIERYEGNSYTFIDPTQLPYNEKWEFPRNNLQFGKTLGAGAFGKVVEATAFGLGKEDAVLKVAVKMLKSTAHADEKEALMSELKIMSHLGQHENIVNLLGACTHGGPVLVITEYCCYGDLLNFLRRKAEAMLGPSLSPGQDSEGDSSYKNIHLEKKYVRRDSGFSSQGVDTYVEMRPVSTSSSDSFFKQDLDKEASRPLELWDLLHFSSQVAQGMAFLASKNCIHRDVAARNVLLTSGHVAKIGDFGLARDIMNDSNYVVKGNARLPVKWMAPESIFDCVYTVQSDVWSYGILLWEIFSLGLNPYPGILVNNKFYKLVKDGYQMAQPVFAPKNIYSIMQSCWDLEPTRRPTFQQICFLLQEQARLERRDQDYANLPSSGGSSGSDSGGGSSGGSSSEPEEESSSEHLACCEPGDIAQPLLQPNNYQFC
Nature of the data set: Inhibition of CSF-1R signaling pathway in C57BL/6 mouse BMDM cells assessed as reduction in M-CSF induced AKT phosphorylation preincubated for 12 hrs followed by M-CSF stimulation for 30 mins by Western blot analysis. The class given is cell-based. For orientation: Immunoblotting shows a protein as a band on a membrane.

Data set [2] has as its target T1, Macrophage colony-stimulating factor 1 receptor (Mus musculus). Nature of the data set: Binding affinity to CSF-1R in C57BL/6 mouse BMDM cells at 100 nM after 1 hr by SIP assay. Format: cell-based.
In data set [3] the test system is BMDM. Nature of the data set: Induction of conversion of M2-macrophages to the M1 phenotype in CM of MC38 cells treated C57BL/6 mouse BMDM cells assessed as down regulation of Arg1 mRNA expression at 30 to 100 nM preincubated with culture medium of MC38 cells for 24 hrs followed by compound addition and measured after 24 hrs by qPCR analysis. The class given is functional, cell-based. Conditions: dose 30-100 nM. (Real-time PCR tracks product formation cycle by cycle.)

In data set [4] the test system is BMDM. Nature of the data set: Induction of conversion of M2-macrophages to the M1 phenotype in CM of MC38 cells treated C57BL/6 mouse BMDM cells assessed as down regulation of Vegf mRNA expression at 30 to 100 nM preincubated with culture medium of MC38 cells for 24 hrs followed by compound addition and measured after 24 hrs by qPCR analysis. Format: functional, cell-based. Conditions: dose 30-100 nM.

Data set [5] relates to BMDM. Nature of the data set: Induction of conversion of M2-macrophages to the M1 phenotype in CM of MC38 cells treated C57BL/6 mouse BMDM cells assessed as upregulation of Il12 mRNA expression at 30 to 100 nM preincubated with culture medium of MC38 cells for 24 hrs followed by compound addition and measured after 24 hrs by qPCR analysis. Particulars: dose 30-100 nM. Format: functional, cell-based.

The subject of data set [6] is BMDM. Nature of the data set: Induction of conversion of M2-macrophages to the M1 phenotype in CM of MC38 cells treated C57BL/6 mouse BMDM cells assessed as upregulation of Tnf mRNA expression at 30 to 100 nM preincubated with culture medium of MC38 cells for 24 hrs followed by compound addition and measured after 24 hrs by qPCR analysis. The class given is functional, cell-based. Conditions: dose 30-100 nM.

Data set [7] has as its system THP-1. Nature of the data set: Induction of conversion of M2-macrophages to the M1 phenotype in CM of HCT116 cells treated […]-differentiated human THP-1 cells assessed as down regulation of Arg1 mRNA expression at 30 to 100 nM incubated for 24 hrs by qPCR analysis. Conditions: dose 30-100 nM. Format: functional, cell-based.
The subject of data set [8] is THP-1. Nature of the data set: Induction of conversion of M2-macrophages to the M1 phenotype in CM of HCT116 cells treated […]-differentiated human THP-1 cells assessed as down regulation of Vegf mRNA expression at 30 to 100 nM incubated for 24 hrs by qPCR analysis. Particulars: dose 30-100 nM. Format: functional, cell-based.
Data set [9] concerns HCT-116. Nature of the data set: Antiproliferative activity against human HCT116 cells cultured with culture medium of M2-macrophages assessed as reduction in cell viability at 10 to 100 nM incubated for 24 hrs by CCK-8 assay. Format: functional, cell-based. Particulars: dose 10-100 nM.
Data set [10] deals with HCT-116. Nature of the data set: Antiproliferative activity against human HCT-116 cells assessed as reduction in cell viability at 10 to 100 nM incubated for 24 hrs by CCK-8 assay. Format: functional, cell-based. Conditions: dose 10-100 nM. (In general: Tetrazolium dyes change colour on reduction, which living cells bring about.)
Data set [11] relates to Mus musculus. Nature of the data set: Toxicity in C57BL/6 mouse allografted with mouse MC38 cells assessed as lung damage at 5 to 20 mg/kg, po administered every day for 2 weeks by histopathological analysis. Format: organism-based, MC-38. Particulars: in vivo, 336 h, dose 5-20 mg/kg.
The test system of data set [12] is Mus musculus. Nature of the data set: Toxicity in C57BL/6 mouse allografted with mouse MC38 cells assessed as heart damage at 5 to 20 mg/kg, po administered every day for 2 weeks by histopathological analysis. Conditions: in vivo, 336 h, dose 5-20 mg/kg. The class given is organism-based, MC-38.
For data set [13], the system named is MC-38. Nature of the data set: Antitumor activity against mouse MC38 cells allografted in C57BL6 mouse assessed as reduction in AKT phosphorylation in tumor tissue at 5 to 10 mg/kg, po administered daily for 2 weeks by Western blot analysis. The class given is functional, organism-based. Particulars: dose 5-10 mg/kg.
Data set [14] concerns MC-38. Nature of the data set: Antitumor activity against mouse MC38 cells allografted in C57BL6 mouse assessed as decrease in Retnla mRNA expression at 10 to 20 mg/kg, po administered daily for 2 weeks by qPCR analysis. Format: functional, organism-based. Conditions: dose 10-20 mg/kg.
Data set [15] has as its system MC-38. Nature of the data set: Antitumor activity against mouse MC38 cells allografted in C57BL6 mouse assessed as decrease in Vegf mRNA expression at 10 to 20 mg/kg, po administered daily for 2 weeks by qPCR analysis. The class given is functional, organism-based. Conditions: dose 10-20 mg/kg.
In data set [16] the test system is MC-38. Nature of the data set: Antitumor activity against mouse MC38 cells allografted in C57BL6 mouse assessed as increase in Il6 mRNA expression at 10 to 20 mg/kg, po administered daily for 2 weeks by qPCR analysis. Conditions: dose 10-20 mg/kg. The class given is functional, organism-based.
Data set [17] has as its system MC-38. Nature of the data set: Antitumor activity against mouse MC38 cells allografted in C57BL6 mouse assessed as increase in Nos2 mRNA expression at 10 to 20 mg/kg, po administered daily for 2 weeks by qPCR analysis. Conditions: dose 10-20 mg/kg. Format: functional, organism-based.
Data set [18] concerns HCT-116. Nature of the data set: Antitumor activity against human HCT-116 cells xenografted in nude BALB/c mouse assessed as tumor growth inhibition at 5 to 20 mg/kg, po administered daily for 2 weeks. Particulars: dose 5-20 mg/kg. The class given is functional, organism-based.

`Cc1[nH]c(/C=C2\C(=O)Nc3cc(NC(=O)Nc4cc(C(C)(C)C)on4)ccc32)c(C)c1NC(=O)CN1CCN(C)CC1`: in data set [1], the inhibition result is “Dose-dependent effect”. Besides, the outcome in [2], in data set [3], in data set [4], in [5], in [6] and in [7] was Active. In addition, the result in data set [8], in [9], in data set [13], in data set [14], in [15] and in [16] was Active. Besides, the result in data set [17] was Active. In addition, the result in data set [10] and in [18] was inactive. Besides, the Activity entry in data set [11] and in [12] was “Non-Toxic” in each case.

(Values after ChEMBL document CHEMBL5055668 (J Med Chem, 2021).)
